Measured values: PubChem BioAssay AID1918947 (Molecular Pharmacology Branch, DTP, NCI, 2023)
Values joined by “and” are separate entries in the source; they are usually repeats but may differ in a detail not shown here. Identical values can stand only once. One block for each molecule: values may come before it.

Test system: A498 complex spheroid viability
Assay: Anticancer human tumor A498 cell line growth inhibition;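 note: spheroids exposed to agents for seven days before readout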;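 for viability, T/C: 100% = DMSO vehicle-treated spheroids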
Details: for viability, T/C: stronger effect = lower value
In short: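 Complex spheroids of tumor cells with HUVEC and human MSCs, exposed to iadademstat combined with other agents. Each agent tested in half-log steps from near clinical Cmax (else 10 microM top), DMSO ≤0.25%.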

[1] = curve of first compound, second compound 0.1 µM
[2] = curve of first compound, second compound 0.316 µM
[3] = curve of first compound, second compound 1 µM
[4] = curve of first compound, second compound 3.16 µM
[5] = curve of first compound, second compound 10 µM
[6] = second compound 0.1 µM, first compound 0.0316 µM
[7] = second compound 0.1 µM, first compound 0.1 µM
[8] = second compound 0.1 µM, first compound 0.316 µM
[9] = second compound 0.1 µM, first compound 1 µM
[10] = second compound 0.1 µM, first compound 3.16 µM
[11] = second compound 0.1 µM, first compound 10 µM
[12] = second compound 0.316 µM, first compound 0.0316 µM
[13] = second compound 0.316 µM, first compound 0.1 µM
[14] = second compound 0.316 µM, first compound 0.316 µM
[15] = second compound 0.316 µM, first compound 1 µM
[16] = second compound 0.316 µM, first compound 3.16 µM
[17] = second compound 0.316 µM, first compound 10 µM
[18] = second compound 1 µM, first compound 0.0316 µM
[19] = second compound 1 µM, first compound 0.1 µM
[20] = second compound 1 µM, first compound 0.316 µM
[21] = second compound 1 µM, first compound 1 µM
[22] = second compound 1 µM, first compound 3.16 µM
[23] = second compound 1 µM, first compound 10 µM
[24] = second compound 3.16 µM, first compound 0.0316 µM
[25] = second compound 3.16 µM, first compound 0.1 µM
[26] = second compound 3.16 µM, first compound 0.316 µM
[27] = second compound 3.16 µM, first compound 1 µM
[28] = second compound 3.16 µM, first compound 3.16 µM
[29] = second compound 3.16 µM, first compound 10 µM
[30] = second compound 10 µM, first compound 0.0316 µM
[31] = second compound 10 µM, first compound 0.1 µM
[32] = second compound 10 µM, first compound 0.316 µM
[33] = second compound 10 µM, first compound 1 µM
[34] = second compound 10 µM, first compound 3.16 µM
[35] = second compound 10 µM, first compound 10 µM

IC50 (curve of compound): 4720 nM and 4390 nM
Compound: CC1(C)CCC(CN2CCN(c3ccc(C(=O)NS(=O)(=O)c4ccc(NCC5CCOCC5)c([N+](=O)[O-])c4)c(Oc4cnc5[nH]ccc5c4)c3)CC2)=C(c2ccc(Cl)cc2)C1
viability, T/C (compound 0.0316 µM): 103% and 98.6%
viability, T/C (compound 0.1 µM): 107% and 105%
viability, T/C (compound 0.316 µM): 97.5% and 95.6%
viability, T/C (compound 1 µM): 93% and 88.7%
viability, T/C (compound 3.16 µM): 74.2% and 67.7%
viability, T/C (compound 10 µM): 6.84% and 8.34%

IC50 (curve of compound): > 10000 nM
Compound: CC(C)c1c(-c2ccccc2)nc2c(C#N)c[nH]n2c1=O
viability, T/C (compound 0.0316 µM): 101% and 102%
viability, T/C (compound 0.1 µM): 104% and 102%
viability, T/C (compound 0.316 µM): 101% and 104%
viability, T/C (compound 1 µM): 103% and 97.9%
viability, T/C (compound 3.16 µM): 102% and 107%
viability, T/C (compound 10 µM): 101% and 107%

IC50 (curve of compound): 342 nM and 416 nM
Compound: Nc1ccccc1NC(=O)c1ccc(CNC(=O)OCc2cccnc2)cc1
viability, T/C (compound 0.00949 µM): 91.2% and 95%
viability, T/C (compound 0.03 µM): 84.3% and 96.3%
viability, T/C (compound 0.0949 µM): 81.4% and 80.8%
viability, T/C (compound 0.3 µM): 53.1% and 62%
viability, T/C (compound 0.949 µM): 19.8% and 24.2%
viability, T/C (compound 3 µM): 1.79% and 6.46%

More lines, now with the values behind:

Compound: CC(C)CC(NC(=O)CNC(=O)c1cc(Cl)ccc1Cl)B1OC(=O)CC(CC(=O)O)(C(=O)O)O1 (stereo not given)
viability, T/C (compound 0.000316 µM): 102% and 107%
viability, T/C (compound 0.001 µM): 106% and 107%
viability, T/C (compound 0.00316 µM): 69.4% and 75.4%
viability, T/C (compound 0.01 µM): 24.7% and 21.5%
viability, T/C (compound 0.0316 µM): 5.96% and 6.51%
viability, T/C (compound 0.1 µM): 2.46% and 1.92%
IC50 (curve of compound): 5.29 nM and 5.46 nM

Compound: CC1COCCN1c1cc(C2(S(C)(=N)=O)CC2)nc(-c2ccnc3[nH]ccc23)n1 (stereo not given) + NC1CC1c1ccc(-c2cccc(O)c2)cc1
IC50 [1]: 409 nM
IC50 [2]: 509 nM
IC50 [3]: 552 nM
IC50 [4]: 503 nM
IC50 [5]: 539 nM
viability, T/C [6]: 92%
viability, T/C [7]: 85.2%
viability, T/C [8]: 55.2%
viability, T/C [9]: 28%
viability, T/C [10]: 16.1%
viability, T/C [11]: 11.5%
viability, T/C [12]: 97.8%
viability, T/C [13]: 96.8%
viability, T/C [14]: 68.4%
viability, T/C [15]: 23.9%
viability, T/C [16]: 16.7%
viability, T/C [17]: 15.6%
viability, T/C [18]: 86.7%
viability, T/C [19]: 94%
viability, T/C [20]: 69.9%
viability, T/C [21]: 28%
viability, T/C [22]: 15.1%
viability, T/C [23]: 10.6%
viability, T/C [24]: 85.2%
viability, T/C [25]: 87.9%
viability, T/C [26]: 63.9%
viability, T/C [27]: 28.1%
viability, T/C [28]: 16.8%
viability, T/C [29]: 11.2%
viability, T/C [30]: 89.7%
viability, T/C [31]: 84.8%
viability, T/C [32]: 63%
viability, T/C [33]: 34%
viability, T/C [34]: 17.8%
viability, T/C [35]: 10.1%

Compound: CC(C)CC(NC(=O)C(Cc1ccccc1)NC(=O)c1cnccn1)B(O)O (stereo not given) + NC1CC1c1ccc(-c2cccc(O)c2)cc1
IC50 [1]: 0.661 nM
IC50 [2]: 0.69 nM
IC50 [3]: 0.66 nM
IC50 [4]: 0.598 nM
IC50 [5]: 0.604 nM
viability, T/C (second compound 0.1 µM, first compound 0.000316 µM): 105%
viability, T/C (second compound 0.1 µM, first compound 0.001 µM): 19.2%
viability, T/C (second compound 0.1 µM, first compound 0.00316 µM): 2.39%
viability, T/C (second compound 0.1 µM, first compound 0.01 µM): 0.87%
viability, T/C [6]: 1%
viability, T/C [7]: 0.39%
viability, T/C (second compound 0.316 µM, first compound 0.000316 µM): 109%
viability, T/C (second compound 0.316 µM, first compound 0.001 µM): 21.9%
viability, T/C (second compound 0.316 µM, first compound 0.00316 µM): 3.05%
viability, T/C (second compound 0.316 µM, first compound 0.01 µM): 1.15%
viability, T/C [12]: 0.51%
viability, T/C [13]: 0.37%
viability, T/C (second compound 1 µM, first compound 0.000316 µM): 106%
viability, T/C (second compound 1 µM, first compound 0.001 µM): 18.4%
viability, T/C (second compound 1 µM, first compound 0.00316 µM): 2.67%
viability, T/C (second compound 1 µM, first compound 0.01 µM): 0.79%
viability, T/C [18]: 0.63%
viability, T/C [19]: 0.4%
viability, T/C (second compound 3.16 µM, first compound 0.000316 µM): 95.6%
viability, T/C (second compound 3.16 µM, first compound 0.001 µM): 13.3%
viability, T/C (second compound 3.16 µM, first compound 0.00316 µM): 2.6%
viability, T/C (second compound 3.16 µM, first compound 0.01 µM): 1.41%
viability, T/C [24]: 0.42%
viability, T/C [25]: 0.5%
viability, T/C (second compound 10 µM, first compound 0.000316 µM): 93.7%
viability, T/C (second compound 10 µM, first compound 0.001 µM): 15.9%
viability, T/C (second compound 10 µM, first compound 0.00316 µM): 2.17%
viability, T/C (second compound 10 µM, first compound 0.01 µM): 0.62%
viability, T/C [30]: 0.39%
viability, T/C [31]: 0.43%

Compound: O=C(c1cc(Cc2n[nH]c(=O)c3ccccc23)ccc1F)N1CCN(C(=O)C2CC2)CC1 + NC1CCC(NC2CC2c2ccccc2)CC1
IC50 [1]: > 10000 nM
IC50 [2]: > 10000 nM
IC50 [3]: > 10000 nM
IC50 [4]: > 10000 nM
IC50 [5]: > 10000 nM
viability, T/C [6]: 85.1%
viability, T/C [7]: 82.7%
viability, T/C [8]: 89.1%
viability, T/C [9]: 85.8%
viability, T/C [10]: 84.7%
viability, T/C [11]: 82.1%
viability, T/C [12]: 92.3%
viability, T/C [13]: 93.3%
viability, T/C [14]: 94.4%
viability, T/C [15]: 94.4%
viability, T/C [16]: 85%
viability, T/C [17]: 84.4%
viability, T/C [18]: 82.3%
viability, T/C [19]: 87.4%
viability, T/C [20]: 91.1%
viability, T/C [21]: 87.4%
viability, T/C [22]: 79.5%
viability, T/C [23]: 75.9%
viability, T/C [24]: 79.8%
viability, T/C [25]: 85.3%
viability, T/C [26]: 69.5%
viability, T/C [27]: 85.5%
viability, T/C [28]: 79.2%
viability, T/C [29]: 77.1%
viability, T/C [30]: 71%
viability, T/C [31]: 73.7%
viability, T/C [32]: 74.4%
viability, T/C [33]: 74.1%
viability, T/C [34]: 62.5%
viability, T/C [35]: 66.8%

Compound: CC[C@@]1(O)C(=O)OCc2c1cc1n(c2=O)Cc2cc3c(CN(C)C)c(O)ccc3nc2-1
viability, T/C (compound 0.000316 µM): 106% and 95.2%
viability, T/C (compound 0.001 µM): 103% and 95.8%
viability, T/C (compound 0.00316 µM): 86.4% and 82.6%
viability, T/C (compound 0.01 µM): 84.5% and 79.2%
viability, T/C (compound 0.0316 µM): 62.7% and 56.4%
viability, T/C (compound 0.1 µM): 33.7% and 32.4%
IC50 (curve of compound): 52.5 nM and 44.6 nM
